One assay concerns the target T1, E235G GCase (Homo sapiens, UniProt P04062, E274G).
T1 sequence (P04062 40-536 E274G): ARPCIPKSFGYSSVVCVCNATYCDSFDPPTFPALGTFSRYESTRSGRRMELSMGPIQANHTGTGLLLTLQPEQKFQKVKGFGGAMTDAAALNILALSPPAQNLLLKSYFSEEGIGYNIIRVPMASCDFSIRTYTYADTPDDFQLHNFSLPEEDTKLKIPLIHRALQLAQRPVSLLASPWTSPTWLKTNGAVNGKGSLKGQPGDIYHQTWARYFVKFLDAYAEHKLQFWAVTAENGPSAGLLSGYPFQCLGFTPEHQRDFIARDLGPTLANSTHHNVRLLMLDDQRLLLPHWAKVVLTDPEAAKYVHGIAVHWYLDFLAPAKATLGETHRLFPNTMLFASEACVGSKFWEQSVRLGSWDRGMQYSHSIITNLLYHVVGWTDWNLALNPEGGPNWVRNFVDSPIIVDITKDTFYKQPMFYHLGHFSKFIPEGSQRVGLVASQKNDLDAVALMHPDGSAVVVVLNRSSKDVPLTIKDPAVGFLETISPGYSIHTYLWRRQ
The assay is described as follows: E235G hydrolysis of alternative substrates, with or without azide. In kind it is biochemical. The settings on record: for E235G activity toward substrate compared to wild-type enzyme: TC (4.25 mM) as activator, no azide.

The target of the next assay is wild-type GCase (Homo sapiens, UniProt P04062). The following applies: azide at 1:4 molar ratio enzyme to azide; DNPG.
wild-type GCase, sequence (P04062 40-536): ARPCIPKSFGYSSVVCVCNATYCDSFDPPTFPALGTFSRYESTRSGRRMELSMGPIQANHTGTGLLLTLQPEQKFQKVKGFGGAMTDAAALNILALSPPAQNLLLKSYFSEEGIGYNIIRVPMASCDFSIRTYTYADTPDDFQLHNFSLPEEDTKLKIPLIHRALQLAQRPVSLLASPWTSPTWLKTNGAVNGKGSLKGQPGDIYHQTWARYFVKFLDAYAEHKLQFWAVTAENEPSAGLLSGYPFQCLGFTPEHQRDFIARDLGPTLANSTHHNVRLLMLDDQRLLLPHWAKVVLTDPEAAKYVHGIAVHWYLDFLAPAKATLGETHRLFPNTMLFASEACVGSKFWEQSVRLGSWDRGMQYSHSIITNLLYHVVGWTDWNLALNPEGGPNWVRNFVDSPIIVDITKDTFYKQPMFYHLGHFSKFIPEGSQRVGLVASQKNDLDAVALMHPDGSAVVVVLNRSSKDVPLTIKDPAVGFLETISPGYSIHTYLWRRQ
For assay [1], the target named is T2, N370 (wild-type) GCase (Homo sapiens, UniProt P04062).
T2 sequence (P04062 40-536): T1 sequence (P04062 40-536 E274G) with G235E
The assay is described as follows: Enzyme activation by TC or saposin C.

In assay [2] the target is T3, N370D GCase (Homo sapiens, UniProt P04062, N409D).
T3 sequence (P04062 40-536 N409D): T1 sequence (P04062 40-536 E274G) with G235E, N370D
The assay is described as follows: Enzyme activation by TC or saposin C.

In assay [3] the target is T4, N370S GCase (Homo sapiens, UniProt P04062, N409S).
T4 sequence (P04062 40-536 N409S): T1 sequence (P04062 40-536 E274G) with G235E, N370S
The assay is described as follows: Enzyme activation by TC or saposin C.

Assay [4] has as its target T5, N370E GCase (Homo sapiens, UniProt P04062, N409E).
T5 sequence (P04062 40-536 N409E): T1 sequence (P04062 40-536 E274G) with G235E, N370E
The assay is described as follows: Enzyme activation by TC or saposin C.

Assay [5] deals with T6, N370Q GCase (Homo sapiens, UniProt P04062, N409Q).
T6 sequence (P04062 40-536 N409Q): T1 sequence (P04062 40-536 E274G) with G235E, N370Q
The assay is described as follows: Enzyme activation by TC or saposin C.

The test system of assay [6] is N370, N370D, N370E and N370S enzymes. The assay is described as follows: Km for DNPG. The following applies: same for all the mutants (Fig. 4 legend). Type of assay: biochemical, human.
The target of assay [7] is T2, N370 (wild-type) GCase. The assay is described as follows: GCase inhibition by active site-directed inhibitors, 4MU-Glc substrate. Type of assay: biochemical.
Assay [8] has as its target T3, N370D GCase. Described as above. In kind it is biochemical.
The target of assay [9] is T4, N370S GCase. The description is as above. In kind it is biochemical.
Assay [10] addresses T5, N370E GCase. Described as above. In kind it is biochemical.
Assay [11] addresses T6, N370Q GCase. The description is as above. Type of assay: biochemical.
Assay [12] relates to all active enzymes (wild-type and mutant GCases). The assay is described as follows: Km for 4MU-Glc from Lineweaver-Burk plots. In kind it is biochemical, human.
Setting [13] is: TC 0 to 8 mM, Triton X-100 4 mM, pH 5.6.
Where [14] appears, read: in combination with 0.5 μM BPS, pH 5.5.

Where a chain is given by its changes, count along the chain named.

Consider `[N-]=[N+]=[N-].[Na+]` [azide, sodium azide], for which, on E235G GCase (10 μM azide (Fig. 6A)), the “hydrolytic rate of 2,4-DNP-β-glucose by E235G relative to wild-type” value is 95%. Moreover, the “hydrolytic rate of DNPG by E235G relative to wild-type enzyme” value at E235G GCase (1:4 molar ratio of enzyme to azide) is recorded as ~ 90%. The “effect of azide on wild-type enzyme activity” value at wild-type GCase was “no effect”.
On to `C[C@H](CCC(=O)NCCS(=O)(=O)O)[C@H]1CC[C@H]2[C@@H]3[C@H](O)C[C@@H]4C[C@H](O)CC[C@]4(C)[C@H]3C[C@H](O)[C@]12C` [TC, Sodium taurocholate], for which the “fold activation by TC” value at N370 (wild-type) GCase [1] (wild-type, TC 0 to 8 mM, Triton X-100 4 mM, pH 5.6) is on record as ~ 25 fold; at N370D GCase [2] (setting [13]) it was ~ 22 fold; on N370S GCase [3] (TC ≥ 4 mM, Triton X-100 4 mM, pH 5.6) it was ~ 35 fold; on N370E GCase [4] (setting [13]), ~ 8 fold; on N370Q GCase [5] (setting [13]), ~ 1.5 fold.
As to `O=[N+]([O-])c1ccccc1O[C@@H]1O[C@H](CO)[C@H](O)[C@H](O)[C@H]1O` [o-NPG, o-nitrophenyl-β-glucose], the “E235G activity toward substrate compared to wild-type enzyme” value at E235G GCase was “less than 0.05%”.
Consider `O=[N+]([O-])c1ccc(O[C@@H]2O[C@H](CO)[C@@H](O)[C@H](O)[C@H]2O)c([N+](=O)[O-])c1` [DNPG, 2,4-dinitrophenyl-β-D-glucoside], for which, in assay [6], the Km is 108 ± 17 µM. The “E235G activity toward substrate compared to wild-type enzyme” value on E235G GCase is ~ 2%.
For the molecule `O[C@H]1[C@H](O)[C@@H](O)[C@@H]2O[C@@H]2[C@@H]1O` (racemic) [Conduritol B Epoxide, conduritol B epoxide], the half-inhibitory concentration (IC50) against N370 (wild-type) GCase [7] was determined as 73 ± 3 µM; at N370D GCase [8], 72 ± 2 µM; against N370S GCase [9], 251 ± 29 µM; against N370E GCase [10] it was 78 ± 4 µM; against N370Q GCase [11], 75 ± 2.5 µM.
As for `O=[N+]([O-])c1ccc(O[C@@H]2O[C@H](CO)[C@H](O)[C@H](O)[C@H]2O)cc1` [p-NPG, p-nitrophenyl-β-glucose], the “E235G activity toward substrate compared to wild-type enzyme” value at E235G GCase is “less than 0.05%”.
For the molecule `Cc1cc(=O)oc2cc(O[C@@H]3O[C@H](CO)[C@@H](O)[C@H](O)[C@H]3O)ccc12` [4MU-Glc, 4-methylumbelliferyl-β-D-glucoside], the Km in assay [12] came out at 2000 ± 500 µM. Also, the “E235G activity toward substrate compared to wild-type enzyme” value on E235G GCase is reported as “less than 0.05%”.

B1: saposin C: protein cofactor of GCase for optimal hydrolytic activity (protein, UniProt P07602 311-390, looked up)
Saposin-C: SDVYCEVCEFLVKEVTKLIDNNKTEKEILDAFDKMCSKLPKSLSEECQEVVDTYGSSILSILLEEVSPELVCSMLHLCSG
modifications: Saposin-C
As to B1, the “fold enhancement by saposin C” value with N370 (wild-type) GCase [1] (N370 (WT), in combination with 0.5 μM BPS, pH 5.5) is listed as ~ 3.5 fold; with N370D GCase [2] (setting [14]) it was 1.8 fold; with N370S GCase [3] (setting [14]), ~ 2.4 fold; with N370E GCase [4] (setting [14]), 1.8 fold. Further, the “enhancement by saposin C” value with N370Q GCase [5] (setting [14]) was “no effect”.

These data come from article PMC2699545 (Molecular genetics and metabolism, 2009).
